Reference: ChEMBL document CHEMBL4359934, “Green chemistry appended synthesis, metabolic stability and pharmacokinetic assessment of medicinally important chromene dihydropyrimidinones” (Bioorg Med Chem Lett, 2019)
In brackets after ≈: the same amount, converted by molar mass.

Key:
[1] = Ratio of drug level in blood to plasma (unknown origin) at 500 nM incubated for 30 mins by LC-MS/MS analysis; format: ADME, cell-free; conditions: blood and plasma
[2] = Ratio of drug level in blood to plasma (unknown origin) at 500 nM incubated for 15 mins by LC-MS/MS analysis; format: ADME, cell-free; conditions: blood and plasma
[3] = Ratio of drug level in blood to plasma (unknown origin) at 500 nM measured immediately by LC-MS/MS analysis; format: ADME, cell-free; conditions: blood and plasma
[4] = Ratio of drug level in blood to plasma (unknown origin) at 500 nM incubated for 45 mins by LC-MS/MS analysis; format: ADME, cell-free; conditions: blood and plasma
[5] = Ratio of drug level in blood to plasma (unknown origin) at 500 nM incubated for 60 mins by LC-MS/MS analysis; format: ADME, cell-free; conditions: blood and plasma
[6] = Metabolic stability in human liver microsomes assessed as half life at 10 uM by LC-MS/MS analysis; format: ADME, Microsome
[7] = Stability in rat liver microsomes assessed as hepatic extraction ratio at 10 uM by LC-MS/MS analysis; format: ADME, Microsome; conditions: read-out: ERH
[8] = n-Octanol-PBS buffer distribution coefficient, log D of compound incubated for 4 hrs by LC-MS/MS analysis; format: physicochemical
[9] = Metabolic stability in rat liver microsomes assessed as remaining compound at 10 uM measured at 15 mins by LC-MS/MS analysis relative to control; format: ADME, Microsome; conditions: read-out: Stability
[10] = Metabolic stability in human liver microsomes assessed as remaining compound at 10 uM measured at 15 mins by LC-MS/MS analysis relative to control; format: ADME, Microsome; conditions: 0.25 h
[11] = Stability in human liver microsomes assessed as hepatic extraction ratio at 10 uM by LC-MS/MS analysis; format: ADME, Microsome; conditions: read-out: ERH
[12] = organism: Rattus norvegicus; assay: Inhibition of rat P-gp ATPase in jejuna mucosa membrane at 10 to 40 uM using ATP as substrate preincubated for 5 mins followed by substrate addition and measured after 30 mins relative to control; format: cell membranes
[13] = Metabolic stability in rat liver microsomes assessed as half life at 10 uM by LC-MS/MS analysis; format: ADME, Microsome
[14] = organism: Rattus norvegicus; assay: Inhibition of rat P-gp ATPase in jejuna mucosa membrane assessed as remaining enzyme activity at 10 to 40 uM using ATP as substrate preincubated for 5 mins followed by substrate addition and measured after 30 mins; format: cell membranes
[15] = Intrinsic clearance in human microsomes at 10 uM by LC-MS/MS analysis; format: ADME, Microsome
[16] = Intrinsic clearance in rat microsome at 10 uM by LC-MS/MS analysis; format: ADME; conditions: microsomes
[17] = n-Octanol-water partition coefficient, log P of compound incubated for 4 hrs by LC-MS/MS analysis; format: physicochemical
[18] = Metabolic stability in rat liver microsomes assessed as remaining compound at 10 uM measured at 45 mins by LC-MS/MS analysis relative to control; format: ADME, Microsome; conditions: read-out: Stability
[19] = Intrinsic clearance in rat liver at 10 uM by LC-MS/MS analysis; format: ADME, tissue-based; conditions: read-out: CLH
[20] = Metabolic stability in human liver microsomes assessed as remaining compound at 10 uM measured at 30 mins by LC-MS/MS analysis relative to control; format: ADME, Microsome; conditions: read-out: Stability
[21] = Intrinsic clearance in human liver at 10 uM by LC-MS/MS analysis; format: ADME, tissue-based; conditions: read-out: CLH
[22] = Solubility of compound in water incubated for 5 hrs by LC-MS/MS analysis; format: physicochemical
[23] = Metabolic stability in human liver microsomes assessed as remaining compound at 10 uM measured at 45 mins by LC-MS/MS analysis relative to control; format: ADME, Microsome; conditions: read-out: Stability
[24] = Metabolic stability in rat liver microsomes assessed as remaining compound at 10 uM measured at 30 mins by LC-MS/MS analysis relative to control; format: ADME, Microsome; conditions: read-out: Stability
[25] = Protein binding in plasma (unknown origin) incubated for 4 hrs by red equilibrium dialysis based LC-MS/MS analysis; format: ADME, cell-free; conditions: read-out: PPB
[26] = system: A549; assay: Cytotoxicity against human A549 cells assessed as reduction in cell viability by MTT assay; format: functional, cell-based
[27] = Permeability coefficient of compound incubated for 5 hrs by LC-MS/MS analysis based PAMPA assay; format: ADME
[28] = organism: Rattus norvegicus; assay: Inhibition of rat P-gp ATPase in jejuna mucosa membrane assessed as remaining enzyme activity at 20 uM using ATP as substrate preincubated for 5 mins followed by substrate addition and measured after 30 mins; format: cell membranes

CC(C)NCC(O)COc1ccc(CC(N)=O)cc1 (stereo not drawn) [ATENOLOL]
blood plasma ratio at 0.5 h, 0.5 µM [1]: 1.2
blood plasma ratio at 0.25 h, 0.5 µM [2]: 1.17
blood plasma ratio at 0 min, 0.5 µM [3]: 1.3
blood plasma ratio at 0.75 h, 0.5 µM [4]: 1.15
blood plasma ratio at 1 h, 0.5 µM [5]: 1

CCOC(=O)C1=C(C)NC(=O)NC1c1cc2c(cc1OC)OC(C)(CC)C=C2Cl (stereo not drawn)
blood plasma ratio at 0.5 h, 0.5 µM [1]: 1.25
t1/2 [6]: 1.38 h
hepatic extraction ratio at 10 µM [7]: 0.41
logD at 4 h [8]: 0.08
remaining at 0.25 h, 10 µM [9]: 76%
Stability [10]: 73%
hepatic extraction ratio at 10 µM [11]: 0.6
inhibition [12]: 1 to 12%
blood plasma ratio at 0.25 h, 0.5 µM [2]: 1.11
half-life at 10 µM [13]: 1.18 h
blood plasma ratio at 0 min, 0.5 µM [3]: 0.9
Activity [14]: 6.7 µM/min/µL
CLint [15]: 20.6 µL/min/mg
blood plasma ratio at 0.75 h, 0.5 µM [4]: 1.35
CLint [16]: 19 µL/min/mg
logP at 4 h [17]: 4.06
remaining at 0.75 h, 10 µM [18]: 76%
CLint scaled at 10 µM [19]: 34 mL/min/kg
remaining at 0.5 h, 10 µM [20]: 73%
CLint scaled at 10 µM [21]: 32.3 mL/min/kg
solubility at 5 h [22]: 6.8 µg/mL (≈ 16.2 µM)
remaining at 0.75 h, 10 µM [23]: 73%
remaining at 0.5 h, 10 µM [24]: 76%
fraction unbound at 4 h [25]: < 0.1
IC50 [26]: 0.139 µM
blood plasma ratio at 1 h, 0.5 µM [5]: 1.4
log Pe [27]: Dose-dependent effect

O[C@@H](COc1cccc2ncccc12)CN1CCN([C@@H]2c3ccccc3[C@@H]3[C@H](c4ccccc42)C3(F)F)CC1
Activity [28]: 2.8 µM/min/µL
